Results published in patent US20240116856A1 (Young BioPharma, LLC, priority 2020, published 2024).
Values after ≈ are worked out from the molar mass of the structure shown. Read-outs that look alike come from different tables or passages of the source.

Assays:
human TRPV3 = target: T1, human TRPV3 (Homo sapiens, UniProt Q8NET8); assay: In vitro Ca2+ flux counter-screen in human TRPV3 overexpressing cells; format: cell-based; settings: counter-screen; read-out: TRPV3 EC50
T1 construct: expressed in transfected cells; host or cells: overexpressing cells
T1 sequence (Q8NET8 1-790): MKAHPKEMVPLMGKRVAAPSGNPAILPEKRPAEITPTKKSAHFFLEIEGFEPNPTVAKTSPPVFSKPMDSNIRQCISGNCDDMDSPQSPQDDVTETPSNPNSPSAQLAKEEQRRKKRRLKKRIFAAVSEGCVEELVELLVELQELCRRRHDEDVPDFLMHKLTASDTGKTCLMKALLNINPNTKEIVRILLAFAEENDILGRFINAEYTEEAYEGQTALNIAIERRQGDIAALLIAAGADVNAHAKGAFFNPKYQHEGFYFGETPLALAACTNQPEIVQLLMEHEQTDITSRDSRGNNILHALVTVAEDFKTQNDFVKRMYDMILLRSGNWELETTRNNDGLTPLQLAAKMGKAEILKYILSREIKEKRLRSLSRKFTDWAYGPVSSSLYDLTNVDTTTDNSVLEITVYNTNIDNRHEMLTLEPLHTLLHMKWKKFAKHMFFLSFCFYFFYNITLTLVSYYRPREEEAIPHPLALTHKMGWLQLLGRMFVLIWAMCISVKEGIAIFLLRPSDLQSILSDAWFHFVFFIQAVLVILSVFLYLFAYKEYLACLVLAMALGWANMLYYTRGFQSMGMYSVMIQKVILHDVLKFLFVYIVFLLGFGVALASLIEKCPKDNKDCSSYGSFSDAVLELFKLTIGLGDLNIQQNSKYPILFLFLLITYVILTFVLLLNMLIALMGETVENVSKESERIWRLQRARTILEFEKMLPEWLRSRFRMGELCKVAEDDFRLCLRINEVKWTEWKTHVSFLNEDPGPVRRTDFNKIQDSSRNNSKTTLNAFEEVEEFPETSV

Aqueous solubility = format: physicochemical
Method: Chemical analysis and solubility tests were performed blind to the identity of the samples. Intermediates and final analogs were analyzed by NMR (JEOL 400 MHz NMR) and HPLC/MS (Waters Acquity UPLC with SQD Mass Spec) to confirm structures and purity. Final compounds were purified to achieve >95% purity based on HPLC analysis.

MDA-MB-231 = assay: Human cancer cell growth inhibition assay (ATP assay), MDA-MB-231; format: cell-based; settings: Homo sapiens, MDA-MB-231, 96 h; 4 days; Means±SEM from three independent experiments; read-out: MDA-MB-231, IC50
NCI-H460 = assay: Human cancer cell growth inhibition assay (ATP assay), NCI-H460; format: cell-based; settings: Homo sapiens, NCI-H460, 96 h; 4 days; Means±SEM from three independent experiments; read-out: NCl-H460, IC50
MDA-MB-231 cell invasion = assay: Cancer cell invasion assay, MDA-MB-231; format: cell-based, human; settings: 24 h
Outline: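 Transwell inserts were coated with membrane matrix gel (0.5-0.6 mg/mL) and loaded with 1×10^5 human cancer cells in RPMI 1640, with 10% FBS medium below as attractant. Compound or DMSO went into both compartments for 24 h at 37 °C. Invaded cells were fixed, crystal-violet stained, counted in 5 random fields and expressed as % of DMSO control.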

[1] = tested on: Src protein activation in OVCAR-8 cells; assay: Cancer cell immunocytochemistry assay, Phospho-Src (Y416), OVCAR-8; format: cell-based, human; settings: YB-1 15 μM, capsaicin 50 μM, 1-6 h
Method: Human cancer cells (15,000 cells/well) in 96 well half area microplate (Cat #3882, Corning) were incubated overnight at 37° C., then compounds or DMSO control were added to the cell culture and incubated at 37° C. for 1-6 h. The cells were sequentially fixed with 4% formalin, permeabilized with 0.5% Triton X-100, blocked with 5% BSA in PBS, incubated with Human Phospho-Src (Y416) Antibody (Cat #MAB2685, R&D Systems) at rt for 2 h, incubated with the secondary antibody Goat Ant-Rabbit IgG H&L (Alexa Fluor 488) (Cat #ab150077, abeam) for 45 min, and incubated with DAPI (Cat #D9542, Sigma-Aldrich) for 5 min. Finally, the cells were washed and covered with PBS. The cell images were visualized on an inverted fluorescence microscope (Leica DMIL Fluorescent Inverted Microscope with Digital Camera, Leica Microsystems). Pictures were taken [FIGS. 14A-C. Green: Human Phospho-Src (Y416), the activated form of the Src protein; Blue: DAPI (stain nucleus of cell)]. The fluorescence intensity values from 5 random cells were averaged, subtracted by the background value (area between cells) and the blank value [the blank control without the Human Phospho-Src (Y416) Antibody], then plotted as percentage against the DMSO control to indicate the effects of compound treatment on the cellular Src kinase phosphorylation levels in the cancer cells (FIGS. 15A-D).

[2] = intraplantar; for reduction of first phase spontaneous behavior: 5-10 g dose
[3] = SubQ; YB-16 3, 6 mg/kg; capsaicin 2 mg/kg
[4] = Scoville Heat Units, cited from earlier work
[5] = Rodent eye wiping assay (pungency)

## COc1cc(CNC(=O)CCCC/C=C/C(C)C)ccc1O [Capsaicin, trans-8-methyl-N-vanillyl-6-nonenamide, reference compound]
Human TRPV3
  EC50: > 10 µM
Aqueous solubility
  solubility: 13 µg/mL (≈ 42.6 µM)
MDA-MB-231
  IC50: 387 ± 120 µM
NCI-H460
  IC50: 200 ± 65 µM
MDA-MB-231 cell invasion
  inhibition of MDA-MB-231 cell invasion: dose-dependently inhibited
[1]
  cellular Src kinase phosphorylation levels: time-dependently reduced the cellular Src kinase phosphorylation levels
[2]
  maximum tolerated dose (MTD): 5 g
[2]; 2 hr prior to formalin
  reduction of first phase spontaneous behavior: 44% reduction in first phase pain
  effect in the second phase of the formalin test: not statistically significant
  effect on formalin spontaneous pain-like behavior: reduce spontaneous pain-like behavior in a dose-related manner
[2]; 2 hr prior to formalin, listed as capsaicin
  reduction of first phase spontaneous behavior: 44%
[2]; 10 g dosing group
  animals with sedation: 20%
[2]; listed as capsaicin
  animal death and sedation in formalin test: One of the capsaicin treated animals died
[3]
  effect on hot-plate reaction: reduced hotplate sensitivity compared to vehicle
[4]
  Pungency (SHU): 16,000,000 SHU
[4]; listed as capsaicin
  Pungency (SHU): 16.0 million
[5]; Moderate Pain-Producing Potency concentration: dose producing 10 normalized eye wipes
  MPP: 0.041 mg/mL
[5]; Relative Pain-Producing Potency with Capsaicin set to 100
  Pungency RPP: 100
[5]; Table 3 comparison, Capsaicin set to 100
  Pungency RPP: 100
